Data published in ChEMBL document CHEMBL1201862, “PubChem BioAssay data set” (2004).
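Following 48 hours of exposure in 96-well plates, responses at five concentrations were used to interpolate endpoints linearly. At the GI50, growth is halved.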 Active and inactive are the calls of the source. Rule as the data show it: active = GI50 up to about 1.1 µM and inactive = higher.

How the values were obtained:
Assay in all cases: NCI tumour cell line growth inhibition, 48 h
RPMI-8226 = tested on: RPMI-8226
UACC-62 = tested on: UACC-62
NCI-H226 = tested on: NCI-H226
HT-29 = tested on: HT-29
T47D = tested on: T47D
SNB-75 = tested on: SNB-75
UO-31 = tested on: UO-31
SN12C = tested on: SN12C
SNB-19 = tested on: SNB-19
RXF 393 = tested on: RXF 393
LOX IMVI = tested on: LOX IMVI
KM12 = tested on: KM12
SF-268 = tested on: SF-268
U-251 = tested on: U-251
UACC-257 = tested on: UACC-257
SF-539 = tested on: SF-539
Hs-578T = tested on: Hs-578T
OVCAR-8 = tested on: OVCAR-8
EKVX = tested on: EKVX
MOLT-4 = tested on: MOLT-4

SMILES	GI50 (RPMI-8226)	GI50 (UACC-62)	GI50 (NCI-H226)	GI50 (HT-29)	GI50 (T47D)	GI50 (SNB-75)	GI50 (UO-31)	GI50 (SN12C)	GI50 (SNB-19)	GI50 (RXF 393)	GI50 (LOX IMVI)	GI50 (KM12)	GI50 (SF-268)	GI50 (U-251)	GI50 (UACC-257)	GI50 (SF-539)	GI50 (Hs-578T)	GI50 (OVCAR-8)	GI50 (EKVX)	GI50 (MOLT-4)
CN(C)C[C@H]1CC[C@@H](CN(C)C)C1=O	0.535 µM (active)	9.08 µM (inactive)	13.1 µM (inactive)	9.84 µM (inactive)	7.03 µM (inactive)	14.5 µM (inactive)	14.9 µM (inactive)	8.59 µM (inactive)	> 50 µM (inactive)	9.29 µM (inactive)	7.14 µM (inactive)	16.9 µM (inactive)	11.2 µM (inactive)	28.7 µM (inactive)	8.47 µM (inactive)	10 µM (inactive)	18.7 µM (inactive)	9.08 µM (inactive)	16.7 µM (inactive)	1.23 µM (inactive)
CC(=O)NCc1nc(C#N)c(N)o1	> 100 µM (inactive)	> 100 µM (inactive)	> 100 µM (inactive)	> 100 µM (inactive)	> 100 µM (inactive)	> 100 µM (inactive)	> 100 µM (inactive)	> 100 µM (inactive)	> 100 µM (inactive)	> 100 µM (inactive)	> 100 µM (inactive)	> 100 µM (inactive)	> 100 µM (inactive)	> 100 µM (inactive)	> 100 µM (inactive)	> 100 µM (inactive)	> 100 µM (inactive)	> 100 µM (inactive)	> 100 µM (inactive)	> 100 µM (inactive)
Oc1ccc(Cl)cc1/C=N/c1cnc2ccccc2c1	13.1 µM (inactive)	32.7 µM (inactive)	55.2 µM (inactive)	36.6 µM (inactive)	4.81 µM (inactive)	33.1 µM (inactive)	45.6 µM (inactive)	30.3 µM (inactive)	29 µM (inactive)	> 100 µM (inactive)	8.17 µM (inactive)	30.6 µM (inactive)	29.1 µM (inactive)	11.9 µM (inactive)	5.01 µM (inactive)	13.4 µM (inactive)	> 68.9 µM (inactive)	27 µM (inactive)	29.7 µM (inactive)	2.84 µM (inactive)
CCOC(=O)NC(Nc1ccc(S(=O)(=O)Nc2ccc(OC)nn2)cc1)(C(F)(F)F)C(F)(F)F	20.6 µM (inactive)	45 µM (inactive)	23 µM (inactive)	39.1 µM (inactive)	> 100 µM (inactive)	26.8 µM (inactive)	> 100 µM (inactive)	25.4 µM (inactive)	43.2 µM (inactive)	18.2 µM (inactive)	29.5 µM (inactive)	30.8 µM (inactive)	36.1 µM (inactive)	17.9 µM (inactive)	33.1 µM (inactive)	20.6 µM (inactive)	35.2 µM (inactive)	38.2 µM (inactive)	37 µM (inactive)	15.8 µM (inactive)
O=C1CC(n2ccnc2)c2c(Cl)sc(Cl)c21 (stereo not given)	2.28 µM (inactive)	15.5 µM (inactive)	31.6 µM (inactive)	19.8 µM (inactive)	21.9 µM (inactive)	20.6 µM (inactive)	14 µM (inactive)	17.7 µM (inactive)	20.3 µM (inactive)	16.4 µM (inactive)	6.3 µM (inactive)	15.6 µM (inactive)	21.9 µM (inactive)	17.7 µM (inactive)	15.5 µM (inactive)	17.2 µM (inactive)	30.4 µM (inactive)	13.1 µM (inactive)	19.2 µM (inactive)	3.86 µM (inactive)
CC1=C(C(=O)OC2CC3CCC2(C)C3(C)C)C2Nc3ccccc3N(C)C2O1 (stereo not given)	2.17 µM (inactive)	1.98 µM (inactive)	4.3 µM (inactive)	1.56 µM (inactive)	3.04 µM (inactive)	3.43 µM (inactive)	2.5 µM (inactive)	1.78 µM (inactive)	3.48 µM (inactive)	2.63 µM (inactive)	1.71 µM (inactive)	2.43 µM (inactive)	4.8 µM (inactive)	3.58 µM (inactive)	1.79 µM (inactive)	3.04 µM (inactive)	3.26 µM (inactive)	2.37 µM (inactive)	5.12 µM (inactive)	1.84 µM (inactive)
O=C(Nc1ccccc1)c1cc(S(=O)(=O)n2ccnc2O)c(S)cc1Cl	> 100 µM (inactive)	> 100 µM (inactive)	> 100 µM (inactive)	> 100 µM (inactive)	> 100 µM (inactive)	28.8 µM (inactive)	> 100 µM (inactive)	> 100 µM (inactive)	> 100 µM (inactive)	> 100 µM (inactive)	> 100 µM (inactive)	> 100 µM (inactive)	> 100 µM (inactive)	> 100 µM (inactive)	> 100 µM (inactive)	> 100 µM (inactive)	> 100 µM (inactive)	> 100 µM (inactive)	> 100 µM (inactive)	> 100 µM (inactive)
